Assay results from patent US20210070748A1, “INHIBITORS OF BRUTONS TYROSINE KINASE” (Pharmacyclics LLC, priority 2015, published 2021).
pIC50: −log10 of the molar value.

Key:
JAK3 = target: T1, JAK3 (Homo sapiens, UniProt P52333); assay: Inhibition of a panel of kinases, in vitro HotSpot kinase assay: JAK3; type: biochemical; conditions: D-compounds panel data; 1 μM ATP; read-out: IC50 JAK3
T1 sequence (P52333 1-1124): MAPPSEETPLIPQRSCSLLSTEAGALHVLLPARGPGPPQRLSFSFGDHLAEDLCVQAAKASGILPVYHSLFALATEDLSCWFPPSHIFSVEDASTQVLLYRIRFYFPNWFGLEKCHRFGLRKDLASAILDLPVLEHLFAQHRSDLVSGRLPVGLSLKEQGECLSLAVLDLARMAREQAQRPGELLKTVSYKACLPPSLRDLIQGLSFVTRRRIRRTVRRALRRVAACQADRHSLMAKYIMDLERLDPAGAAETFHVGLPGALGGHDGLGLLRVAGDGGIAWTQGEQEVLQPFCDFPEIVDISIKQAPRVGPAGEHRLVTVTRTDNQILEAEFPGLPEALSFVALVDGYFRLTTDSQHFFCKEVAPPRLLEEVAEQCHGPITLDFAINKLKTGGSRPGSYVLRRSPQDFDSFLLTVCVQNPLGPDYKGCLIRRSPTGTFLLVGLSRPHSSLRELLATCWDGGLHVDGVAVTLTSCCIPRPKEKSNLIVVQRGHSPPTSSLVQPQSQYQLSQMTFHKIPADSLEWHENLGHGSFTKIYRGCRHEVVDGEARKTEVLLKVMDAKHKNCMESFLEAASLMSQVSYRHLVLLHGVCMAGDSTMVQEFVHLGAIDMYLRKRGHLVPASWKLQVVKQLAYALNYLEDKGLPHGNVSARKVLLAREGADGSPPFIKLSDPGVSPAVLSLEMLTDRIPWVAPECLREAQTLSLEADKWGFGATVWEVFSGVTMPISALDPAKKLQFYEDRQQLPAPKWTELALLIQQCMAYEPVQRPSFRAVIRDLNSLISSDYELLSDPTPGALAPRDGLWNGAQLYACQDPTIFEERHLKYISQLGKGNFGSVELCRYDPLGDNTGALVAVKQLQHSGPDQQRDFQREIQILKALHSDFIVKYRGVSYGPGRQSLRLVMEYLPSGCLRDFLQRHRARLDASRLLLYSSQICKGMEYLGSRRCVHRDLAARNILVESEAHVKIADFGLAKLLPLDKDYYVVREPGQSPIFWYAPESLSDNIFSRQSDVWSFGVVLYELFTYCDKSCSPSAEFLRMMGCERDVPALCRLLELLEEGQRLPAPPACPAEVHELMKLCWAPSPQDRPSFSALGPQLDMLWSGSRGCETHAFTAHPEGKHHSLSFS

EGFR = EGFR (Homo sapiens, UniProt P00533); assay: Inhibition of a panel of kinases, in vitro HotSpot kinase assay: EGFR; type: biochemical; conditions: D-compounds panel data; 1 μM ATP
Sequence of EGFR (P00533 25-1210): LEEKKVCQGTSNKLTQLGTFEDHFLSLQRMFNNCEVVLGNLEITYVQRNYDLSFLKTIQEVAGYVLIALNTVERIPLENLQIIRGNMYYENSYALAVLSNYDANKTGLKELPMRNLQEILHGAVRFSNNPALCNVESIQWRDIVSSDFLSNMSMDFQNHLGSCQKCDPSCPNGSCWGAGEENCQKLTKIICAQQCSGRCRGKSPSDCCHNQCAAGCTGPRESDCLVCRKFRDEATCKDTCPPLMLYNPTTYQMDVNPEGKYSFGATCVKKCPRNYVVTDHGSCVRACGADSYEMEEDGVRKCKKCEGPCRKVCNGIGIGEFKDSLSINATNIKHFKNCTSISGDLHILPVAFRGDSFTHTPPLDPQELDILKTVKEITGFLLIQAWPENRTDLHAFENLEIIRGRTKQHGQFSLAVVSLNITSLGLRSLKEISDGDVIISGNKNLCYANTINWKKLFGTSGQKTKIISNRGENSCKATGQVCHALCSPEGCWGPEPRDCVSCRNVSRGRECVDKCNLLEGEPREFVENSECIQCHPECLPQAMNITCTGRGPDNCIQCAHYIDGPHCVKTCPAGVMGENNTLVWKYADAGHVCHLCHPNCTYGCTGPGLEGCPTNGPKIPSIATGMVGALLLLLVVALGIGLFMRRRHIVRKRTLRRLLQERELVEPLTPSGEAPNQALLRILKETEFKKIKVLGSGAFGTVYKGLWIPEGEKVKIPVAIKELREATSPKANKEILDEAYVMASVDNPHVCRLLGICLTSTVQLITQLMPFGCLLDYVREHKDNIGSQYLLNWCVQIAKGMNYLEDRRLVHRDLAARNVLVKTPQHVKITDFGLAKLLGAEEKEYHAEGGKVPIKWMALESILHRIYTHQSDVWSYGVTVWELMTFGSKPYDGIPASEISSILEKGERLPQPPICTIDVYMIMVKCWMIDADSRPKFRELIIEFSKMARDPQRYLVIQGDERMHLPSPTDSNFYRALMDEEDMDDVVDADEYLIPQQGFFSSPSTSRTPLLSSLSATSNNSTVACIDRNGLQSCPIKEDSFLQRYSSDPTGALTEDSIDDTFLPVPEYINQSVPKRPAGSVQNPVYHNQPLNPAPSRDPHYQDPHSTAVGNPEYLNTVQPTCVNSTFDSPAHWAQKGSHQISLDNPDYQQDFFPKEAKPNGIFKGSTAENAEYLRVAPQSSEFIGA
Protocol: The degree of inhibition of a panel of kinases is determined using the in vitro HotSpot kinase assay (purified enzymes, ^33P-ATP, an appropriate substrate and 1 μM ATP).

| Compound | pIC50 (JAK3) | pIC50 (EGFR) |
| --- | --- | --- |
| Cc1cc(Nc2nc(N3C[C@H](NC(=O)N(C)C)CC[C@H]3C)cnc2C(N)=O)sn1 [Example D-77, 5-[(2R,5R)-5-[(dimethylcarbamoyl)amino]-2-methylpiperidin-1-yl]-3-[(3-methyl-1,2-thiazol-5-yl)amino]pyrazine-2-carboxamide] | 5.00 to 6.00 | 5.00 to 6.00 |
| Cc1cc(Nc2nc(N3C[C@@H](NC(=O)c4ccc(C5CC5)cc4F)CC[C@@H]3C)cnc2C(N)=O)sn1 [Example D-78, 5-[(2S,5S)-5-(4-cyclopropyl-2-fluorobenzamido)-2-methylpiperidin-1-yl]-3-[(3-methyl-1,2-thiazol-5-yl)amino]pyrazine-2-carboxamide] | 5.00 to 6.00 | 6.00 to 7.00 |
| Cc1cc(Nc2nc(N3C[C@H](NC(=O)c4ccc(C5CC5)cc4F)CC[C@H]3C)cnc2C(N)=O)sn1 [Example D-79, 5-[(2R,5R)-5-(4-cyclopropyl-2-fluorobenzamido)-2-methylpiperidin-1-yl]-3-[(3-methyl-1,2-thiazol-5-yl)amino]pyrazine-2-carboxamide] | 5.00 to 6.00 | 5.00 to 6.00 |
| Cc1cc(Nc2nc(N3C[C@@H](NC(=O)c4ccc(C5CC5)cc4F)CC[C@H]3C)cnc2C(N)=O)sn1 [Example D-80, 5-[(2R,5S)-5-(4-cyclopropyl-2-fluorobenzamido)-2-methylpiperidin-1-yl]-3-[(3-methyl-1,2-thiazol-5-yl)amino]pyrazine-2-carboxamide] | 5.00 to 6.00 | 6.00 to 7.00 |
| C[C@@H]1[C@H](NC(=O)c2ccc(C3CC3)cc2)CCCN1c1cnc(C(N)=O)c(Nc2ccc(N3CCN(C)CC3)cc2)n1 [Example D-81] | 5.00 to 6.00 | 6.00 to 7.00 |
| C[C@@H]1[C@H](NC(=O)c2ccc(C3CC3)cc2F)CCCN1c1cnc(C(N)=O)c(Nc2ccc(N3CCN(C)CC3)c(F)c2)n1 [Example D-82, 5-[(2R,3R)-3-(4-cyclopropyl-2-fluorobenzamido)-2-methylpiperidin-1-yl]-3-{[3-fluoro-4-(4-methylpiperazin-1-yl)phenyl]amino}pyrazine-2-carboxamide] | 5.00 to 6.00 | 6.00 to 7.00 |
| C[C@@H]1[C@H](NC(=O)c2ccc(C3CC3)cc2)CCCN1c1cnc(C(N)=O)c(Nc2ccc3nccn3c2)n1 [Example D-83, 5-[(2R,3R)-3-(4-cyclopropylbenzamido)-2-methylpiperidin-1-yl]-3-({imidazo[1,2-a]pyridin-6-yl}amino)pyrazine-2-carboxamide] | 5.00 to 6.00 | < 5.00 |
| C[C@@H]1[C@H](NC(=O)c2ccc(N(C)C)cn2)CCCN1c1cnc(C(N)=O)c(Nc2cnn(C)c2)n1 [Example D-84, 5-[(2R,3R)-3-[5-(dimethylamino)pyridine-2-amido]-2-methylpiperidin-1-yl]-3-[(1-methyl-1H-pyrazol-4-yl)amino]pyrazine-2-carboxamide] | < 5.00 | 5.00 to 6.00 |
| C[C@@H]1[C@H](NC(=O)c2ccc(-c3ncccn3)cc2)CCCN1c1cnc(C(N)=O)c(Nc2cnn(C)c2)n1 [Example D-85, 3-[(1-methyl-1H-pyrazol-4-yl)amino]-5-[(2R,3R)-2-methyl-3-[4-(pyrimidin-2-yl)benzamido]piperidin-1-yl]pyrazine-2-carboxamide] | 6.00 to 7.00 | 6.00 to 7.00 |
| C[C@@H]1[C@H](NC(=O)c2cnc(C3CC3)nc2)CCCN1c1cnc(C(N)=O)c(Nc2cnn(C)c2)n1 [Example D-86, 5-[(2R,3R)-3-(2-cyclopropylpyrimidine-5-amido)-2-methylpiperidin-1-yl]-3-[(1-methyl-1H-pyrazol-4-yl)amino]pyrazine-2-carboxamide] | 6.00 to 7.00 | 5.00 to 6.00 |
| C[C@@H]1[C@H](NC(=O)c2ccc(C(F)(F)F)cn2)CCCN1c1cnc(C(N)=O)c(Nc2cnn(C)c2)n1 [Example D-87, 3-[(1-methyl-1H-pyrazol-4-yl)amino]-5-[(2R,3R)-2-methyl-3-[5-(trifluoromethyl)pyridine-2-amido]piperidin-1-yl]pyrazine-2-carboxamide] | 6.00 to 7.00 | 6.00 to 7.00 |
| C[C@@H]1[C@H](NC(=O)c2ccc(C(C)(C)C#N)cc2)CCCN1c1cnc(C(N)=O)c(Nc2cnn(C)c2)n1 [Example D-88, 5-[(2R,3R)-3-[4-(1-cyano-1-methylethyl)benzamido]-2-methylpiperidin-1-yl]-3-[(1-methyl-1H-pyrazol-4-yl)amino]pyrazine-2-carboxamide] | 5.00 to 6.00 | 5.00 to 6.00 |
| C[C@@H]1[C@H](NC(=O)c2ccc(C3CC3)cc2)CCCN1c1cnc(C(N)=O)c(Nc2ccc(OC3CCN(C)CC3)cc2)n1 [Example D-89] | 6.00 to 7.00 | 6.00 to 7.00 |
| C[C@@H]1[C@H](NC(=O)C23CC(C2)C3)CCCN1c1cnc(C(N)=O)c(Nc2cnn(C)c2)n1 [Example D-90, 5-[(2R,3R)-3-{bicyclo[1.1.1]pentane-1-amido}-2-methylpiperidin-1-yl]-3-[(1-methyl-1H-pyrazol-4-yl)amino]pyrazine-2-carboxamide] | 5.00 to 6.00 | 5.00 to 6.00 |
| C[C@@H]1[C@H](NC(=O)c2ccc(C(F)(F)F)nc2)CCCN1c1cnc(C(N)=O)c(Nc2cnn(C)c2)n1 [Example D-91, 3-[(1-methyl-1H-pyrazol-4-yl)amino]-5-[(2R,3R)-2-methyl-3-[6-(trifluoromethyl)pyridine-3-amido]piperidin-1-yl]pyrazine-2-carboxamide] | 6.00 to 7.00 | 6.00 to 7.00 |
| C[C@@H]1[C@H](NC(=O)c2ccc(C3CC3)cc2)CCCN1c1cnc(C(N)=O)c(Nc2ccc(N3CCN(C)CC3)c(C(F)(F)F)c2)n1 [Example D-92, 5-[(2R,3R)-3-(4-cyclopropylbenzamido)-2-methylpiperidin-1-yl]-3-{[4-(4-methylpiperazin-1-yl)-3-(trifluoromethyl)phenyl]amino}pyrazine-2-carboxamide] | < 5.00 | 5.00 to 6.00 |
| C[C@@H]1[C@H](N2CCN(C)C2=O)CCCN1c1cnc(C(N)=O)c(Nc2cnn(C)c2)n1 [Example D-93, 3-[(1-methyl-1H-pyrazol-4-yl)amino]-5-[(2R,3R)-2-methyl-3-(3-methyl-2-oxoimidazolidin-1-yl)piperidin-1-yl]pyrazine-2-carboxamide] | 6.00 to 7.00 | 5.00 to 6.00 |
| C[C@@H]1[C@H](NC(=O)c2ccc(C(C)(C)CO)cc2)CCCN1c1cnc(C(N)=O)c(Nc2cnn(C)c2)n1 [Example D-94, 5-[(2R,3R)-3-[4-(1-hydroxy-2-methylpropan-2-yl)benzamido]-2-methylpiperidin-1-yl]-3-[(1-methyl-1H-pyrazol-4-yl)amino]pyrazine-2-carboxamide] | 6.00 to 7.00 | 5.00 to 6.00 |
| C[C@@H]1[C@H](NC(=O)c2ccc(C3CC3)cc2)CCCN1c1cnc(C(N)=O)c(Nc2ccc(CN3CCOCC3)cc2)n1 [Example D-316, 5-[(2R,3R)-3-(4-cyclopropylbenzamido)-2-methylpiperidin-1-yl]-3-{[4-(morpholin-4-ylmethyl)phenyl]amino}pyrazine-2-carboxamide] | 5.00 to 6.00 | 6.00 to 7.00 |
| C[C@@H]1[C@H](NC(=O)c2ccc(C3CC3)cc2)CCCN1c1cnc(C(N)=O)c(Nc2ccc(C3CCOCC3)cc2)n1 [Example D-317, 5-[(2R,3R)-3-(4-cyclopropylbenzamido)-2-methylpiperidin-1-yl]-3-{[4-(oxan-4-yl)phenyl]amino}pyrazine-2-carboxamide] | 5.00 to 6.00 | < 5.00 |
